Results taken from patent US4371535A, “Method of and composition for delivering 5-fluorouracil to tumors” (priority 1976, dated 1983).
Where two headings read alike, the source gives them in different places.

Tests used:
in vivo = type: in vivo; conditions: mouse, in vivo, oral, mice
Method: (§1) Mice (ddy strain, male, 5 weeks old) are reared for one week, then fasted for 15 hours and thereafter orally given the compound forcibly. After the administration, the mice are placed into plastic cages, with free access to a solid diet and water, and checked for mortality 3 days, one week, 2 weeks and 3 weeks later. LD50 is calculated according to the method of Litchfield and Wilcoxon.

Mice (ddy strain) = test: in vivo; type: in vivo; conditions: for LD50: oral, mice
Method: as §1

Ehrlich carcinoma = test: Anti-tumor activity on Ehrlich carcinoma, subcutaneous transplant; type: in vivo; conditions: mice, oral once daily 7 days; for Inhibition percentage: 121.5 mg/kg (bis) or 90 mg/kg (mono), tumor weight on 10th day; for Weight of tumor: 121.5 mg/kg (bis) or 90 mg/kg (mono, equimolar), 10th day, control 0.61 ± 0.08 g
Method: (§2) As transplantable tumors, Ehrlich carcinoma and sarcoma 180 are used for mice and Yoshida sarcoma and AH 130 for rats. […] The effect of the compound is determined in terms of the weight of tumor on the 10th day from the transplantation.

sarcoma 180 = test: Anti-tumor activity on sarcoma 180, subcutaneous transplant; type: in vivo; conditions: mice, oral once daily 7 days, 121.5 mg/kg (bis) or 90 mg/kg (mono); for Weight of tumor: 10th day, control 1.00 ± 0.09 g; for Inhibition percentage: tumor weight on 10th day
Method: as §2

Yoshida sarcoma = test: Anti-tumor activity on Yoshida sarcoma, subcutaneous transplant; type: in vivo; conditions: rats, oral once daily 7 days, 121.5 mg/kg (bis) or 90 mg/kg (mono); for Weight of tumor: 10th day, control 4.48 ± 0.60 g; for Inhibition percentage: tumor weight on 10th day
Method: as §2

AH-130 = test: Anti-tumor activity on AH-130, subcutaneous transplant; type: in vivo; conditions: rats, oral once daily 7 days, 121.5 mg/kg (bis) or 90 mg/kg (mono); for Weight of tumor: 10th day, control 2.10 ± 0.50 g; for Inhibition percentage: tumor weight on 10th day
Method: as §2

Solubility = type: physicochemical
tumor = test: Anti-tumor activity, overall comparison with 1-(2-tetrahydrofuryl)-5-fluorouracil; type: in vivo; conditions: versus 1-(2-tetrahydrofuryl)-5-fluorouracil
Method: as §2

[1] = Conversion in the body into 5-fluorouracil; conditions: in vivo
Method: (§3) Cells of the tumor, AH-130, 5×10^6 in number, are subcutaneously transplanted in the armpit region of test animals (3 in each group). […] The concentration of 5-fluorouracil in the blood and in the cancer cellular tissue of the animals are measured 1, 2, 4, 8 and 12 hours after the administration.

cellular immunity = conditions: mouse, in vivo
Method: A predetermined amount of 7 wt. % ethanol solution of picryl chloride is given to the shaved abdomens of mice for sensitization. […] On the seventh day after the sensitization, a 1 wt. % olive oil solution of picryl chloride is applied to the inside of both ears of each animal to give rise to a delayed cutireaction. The thickness of the ear resulting from the reaction in 24 hours is measured to calculate the percentage of inhibition on immunity.

[2] = rat, in vivo; for Concentration of 5-fluorouracil in blood: po
Method: as §3

[3] = rat, in vivo; for Concentration of 5-fluorouracil in cancer cellular tissue: po
Method: as §3

[4] = Toxicity and side effects, overall statement; conditions: versus 1-(2-tetrahydrofuryl)-5-fluorouracil
immunity = conditions: versus 5-fluorouracil; Giller et al., British Pat. No. 1,168,391; cited from earlier work
[5] = cited from earlier work
transplanted tumors = conditions: Heidelberger et al.; cited from earlier work

| SMILES | Inhibition percentage (Ehrlich carcinoma) [%] | Weight of tumor (Ehrlich carcinoma) [g] | Weight of tumor (sarcoma 180) [g] | Inhibition percentage (sarcoma 180) [%] | Weight of tumor (Yoshida sarcoma) [g] | Inhibition percentage (Yoshida sarcoma) [%] | Weight of tumor (AH-130) [g] | Inhibition percentage (AH-130) [%] | Concentration of 5-fluorouracil in blood ([2]; 60 min) [µg/mL] | Concentration of 5-fluorouracil in blood ([2]; 120 min) [µg/mL] | Concentration of 5-fluorouracil in blood ([2]; 240 min) [µg/mL] | Concentration of 5-fluorouracil in blood ([2]; 480 min) [µg/mL] | Concentration of 5-fluorouracil in blood ([2]; 720 min) [µg/mL] | Concentration of 5-fluorouracil in cancer cellular tissue ([3]; 60 min) [µg/mL] | Concentration of 5-fluorouracil in cancer cellular tissue ([3]; 120 min) [µg/mL] | Concentration of 5-fluorouracil in cancer cellular tissue ([3]; 240 min) [µg/mL] | Concentration of 5-fluorouracil in cancer cellular tissue ([3]; 480 min) [µg/mL] | Concentration of 5-fluorouracil in cancer cellular tissue ([3]; 720 min) [µg/mL] | other results |
| --- | --- | --- | --- | --- | --- | --- | --- | --- | --- | --- | --- | --- | --- | --- | --- | --- | --- | --- | --- |
| O=c1c(F)cn(C2CCCO2)c(=O)n1C1CCCO1 (centres unmarked) [1,3-bis(2-tetrahydrofuryl)-5-fluorouracil] | 57 | 0.26 ± 0.06 | 0.31 ± 0.10 | 69 | 2.59 ± 0.33 | 42 | 0.92 ± 0.35 | 56 | 5.88 | 5.08 | 2.65 | 0.57 | 0.20 | 8.93 | 7.53 | 7.53 | 5.40 | 2.13 | LD50 at 504 h (in vivo; 3 weeks): 2560 mg/kg; LD50 at 72 h (in vivo; 3 days): 2980 mg/kg; LD50 (Mice (ddy strain); 1 week, 10080 min): 2,780 mg/kg; LD50 (Mice (ddy strain); 2 weeks, 20160 min): 2,664 mg/kg; Acute toxicity relative to the conventional composition (Mice (ddy strain); versus composition containing 1-(2-tetrahydrofuryl)-5-fluorouracil): about one-third; Solubility (Solubility; methanol, ethanol, acetone, ether, chloroform, glacial acetic acid, dimethyl sulfoxide): soluble; Solubility (Solubility; water, aqueous caustic soda solution, ethyl acetate, hydrochloric acid): sparingly soluble; Anti-tumor activity, in words (tumor): more excellent anti-tumor activity; Conversion in the body (prodrug) [1]: converted in the body into 5-fluorouracil; Inhibitory effect on the cellular immunity relative to the conventional composition (cellular immunity): lower inhibitory effect on the cellular immunity; Concentration of 5-fluorouracil in the blood relative to the conventional composition [2]: 10-20 times; Concentration of 5-fluorouracil in cancer cellular tissue relative to the conventional composition [3]: 10-20 times; Concentration of 5-fluorouracil maintained in cancer cellular tissue, in words [3]: much higher; Side effects, in words [4]: less side effects; Toxicity, in words [4]: lower toxicity |
| O=c1[nH]c(=O)n(C2CCCO2)cc1F (centres unmarked) [1-(2-tetrahydrofuryl)-5-fluorouracil, reference compound] | 39 | 0.37 ± 0.14 | 0.36 ± 0.11 | 64 | 3.48 ± 0.68 | 22 | 1.11 ± 0.17 | 47 | 0.20 | 0.30 | 0.20 | 0.08 | ≤ 0.04 | ≤ 0.20 | 0.35 | 0.35 | 0.34 | ≤ 0.20 | Inhibition on immunity, in words (immunity): less inhibitory on immunity than 5-fluorouracil; Toxicity, in words ([5]; versus 5-fluorouracil, Giller et al., British Pat. No. 1,168,391): lower in toxicity |
| O=c1[nH]cc(F)c(=O)[nH]1 [5-fluorouracil] |  |  |  |  |  |  |  |  |  |  |  |  |  |  |  |  |  |  | Anti-tumor activity, in words (transplanted tumors): inhibit transplanted tumors; Toxicity, in words ([5]; background statement): highly toxic; Side effects, in words ([5]; in vivo): reduced immunity, gastro-intestinal ulceration, leucopenia and various other side effects |
